These results are taken from patent publication US11279733B2, “Peptide antibiotics” (priority 2017, dated 2022).

Each structure is given as a SMILES string. Converted amounts (≈) assume the structure as drawn. Positions of bridges follow the written chain, without caps; N, C: chain ends. Non-standard residues stand in square brackets, D forms with d. Residues, ends and D or L forms follow the SMILES beside them. *: point of attachment. Decanoyl(3R-OH) = CCCCCCC[C@@H](O)CC(=O)*; dDab = NCC[C@@H](N)C(=O)O; Dab = NCC[C@H](N)C(=O)O

For one series, the system named is A. baumannii ATCC 19606. The note with it: ATCC 19606. The gist of the method:
(§1)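 Mid-log cultures grown in Mueller Hinton broth at 37° C were tested by 2-fold broth microdilution at 5×10^5 CFU/mL final. Compounds were dissolved in water and tested over a final range of 32 to 0.015 μg/mL.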

The subject of a further series is A. baumannii GN_093 PmxR. The note with it: GN 093 PmxR. The gist of the method:
as §1

The next series has as its system E. coli ATCC 25922. The settings on record: ATCC 25922. The gist of the method: as §1
Another series has as its system K. pneumoniae ATCC 13883. The note with it: ATCC 13883. The gist of the method: as §1
In series [1] the test system is K. pneumoniae ATCC 700603, MDR. The note with it: ATCC 700603. The gist of the method:
as §1

Series [2] deals with K. pneumoniae ATCC BAA-2146, NDM-1 pos. The settings on record: ATCC BAA-2146. The gist of the method: as §1
Series [3] relates to K. pneumoniae GN_102 PmxR. The note with it: GN 102 PmxR. The gist of the method: as §1
Series [4] deals with K. pneumoniae GN_106, PmxR. The settings on record: GN 106, PmxR. The gist of the method:
as §1

For the next series, the system named is P. aeruginosa ATCC 27853. The note with it: ATCC 27853. The gist of the method: as §1
Series [5] has as its system P. aeruginosa GN_043, PmxR. The note with it: polymyxin-resistant. The gist of the method:
as §1

The subject of series [6] is P. aeruginosa GN_105, PmxR. The settings on record: GN 105, PmxR. The gist of the method: as §1
In series [7] the test system is S. aureus ATCC 25923, MSSA. The settings on record: ATCC 25923. The gist of the method: as §1
Another series in a line: in vitro. The settings on record: human. The gist of the method:
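HK2 cells were seeded at 2000 per well in DMEM/F12 with 10% FBS and left to attach for 24 h at 37 °C, 5% CO2. They were then exposed for 24 h to 3-fold peptide dilutions starting from 600 μM solutions in quadruplicate. LDH release was read at 450 nm, and CC50 was fitted from dose-response curves.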

For `CCCCCCC[C@@H](O)CC(=O)N[C@H](CCN)C(=O)N[C@H]1CCNC(=O)[C@H](Cc2ccc(O)cc2)NC(=O)[C@H](CCN)NC(=O)[C@H](CCN)NC(=O)[C@H](CC(C)C)NC(=O)[C@@H](Cc2ccccc2)NC(=O)[C@H](CCN)NC1=O` [compound 6511, 3(R)OH-nC9CO-D-Dab-cyc[L-Dab-L-Dab-D-Phe-L-Leu-L-Dab-L-Dab-L-Tyr]] ({Decanoyl(3R-OH)}-[dDab][Dab][Dab][dF]L[Dab][Dab]Y; lactam 2-C), in the series with A. baumannii ATCC 19606, the “MIC A. baumannii ATCC 19606” value came out at 32 µg/mL (≈ 29.2 µM). Further, the “MIC A. baumannii GN_093 PmxR” value against A. baumannii GN_093 PmxR stood at 32 µg/mL (≈ 29.2 µM). Besides, the “MIC E. coli ATCC 25922” value against E. coli ATCC 25922 was determined as 8 µg/mL (≈ 7.31 µM). Further, in the series with K. pneumoniae ATCC 13883, the “MIC K. pneumoniae ATCC 13883” value was 8 µg/mL (≈ 7.31 µM). The “MIC K. pneumoniae ATCC 700603, MDR” value in series [1] came out at 4 µg/mL (≈ 3.66 µM). Besides, the “MIC K. pneumoniae ATCC BAA-2146, NDM-1 pos” value in series [2] amounted to 2 µg/mL (≈ 1.83 µM). For the same molecule, the “MIC K. pneumoniae GN_102 PmxR” value in series [3] amounted to 8 µg/mL (≈ 7.31 µM). In addition, the “MIC K. pneumoniae GN_106, PmxR” value in series [4] came to 8 µg/mL (≈ 7.31 µM). Moreover, the “MIC P. aeruginosa ATCC 27853” value against P. aeruginosa ATCC 27853 was found to be 2 µg/mL (≈ 1.83 µM). Moreover, in series [5], the “MIC P. aeruginosa GN_043, PmxR” value was 1 µg/mL (≈ 0.914 µM). Moreover, the “MIC P. aeruginosa GN_105, PmxR” value in [6] came out at 4 µg/mL (≈ 3.66 µM). In addition, the “MIC S. aureus ATCC 25923, MSSA” value in series [7] worked out at 32 µg/mL (≈ 29.2 µM). The CC50 at 24 h in “in vitro” was 76 µM.

In the case of `CCCCCCC[C@@H](O)CC(=O)N[C@H](CCN)C(=O)N[C@H]1CCNC(=O)[C@H](CCC(=O)O)NC(=O)[C@H](CCN)NC(=O)[C@H](CCN)NC(=O)[C@H](CC(C)C)NC(=O)[C@@H](Cc2ccccc2)NC(=O)[C@H](CCN)NC1=O` [compound 6512, 3(R)OH-nC9CO-D-Dab-cyc[L-Dab-L-Dab-D-Phe-L-Leu-L-Dab-L-Dab-L-Glu]] ({Decanoyl(3R-OH)}-[dDab][Dab][Dab][dF]L[Dab][Dab]E; lactam 2-C), the “MIC A. baumannii ATCC 19606” value in the series with A. baumannii ATCC 19606 is over 64 µg/mL. Also, in the series with A. baumannii GN_093 PmxR, the “MIC A. baumannii GN_093 PmxR” value is over 32 µg/mL. In addition, in the series on E. coli ATCC 25922, the “MIC E. coli ATCC 25922” value was over 64 µg/mL. Moreover, in the series on K. pneumoniae ATCC 13883, the “MIC K. pneumoniae ATCC 13883” value was over 64 µg/mL. Moreover, the “MIC K. pneumoniae ATCC 700603, MDR” value in series [1] is 64 µg/mL (≈ 60.4 µM). Moreover, the “MIC K. pneumoniae ATCC BAA-2146, NDM-1 pos” value in series [2] was over 64 µg/mL. For the same molecule, in series [3], the “MIC K. pneumoniae GN_102 PmxR” value is over 32 µg/mL. For the same molecule, the “MIC K. pneumoniae GN_106, PmxR” value in [4] was over 32 µg/mL. The “MIC P. aeruginosa ATCC 27853” value against P. aeruginosa ATCC 27853 was 8 µg/mL (≈ 7.54 µM). In addition, the “MIC P. aeruginosa GN_043, PmxR” value in series [5] is over 32 µg/mL. Also, in series [6], the “MIC P. aeruginosa GN_105, PmxR” value was over 32 µg/mL. Also, the “MIC S. aureus ATCC 25923, MSSA” value in [7] was over 32 µg/mL. The molecule further showed a CC50 at 24 h in “in vitro” of over 300 µM.

`CCCCCCC[C@@H](O)CC(=O)N[C@H](CCN)C(=O)N[C@H]1CCNC(=O)[C@H](CC(=O)O)NC(=O)[C@H](CCN)NC(=O)[C@H](CCN)NC(=O)[C@H](CC(C)C)NC(=O)[C@@H](Cc2ccccc2)NC(=O)[C@H](CCN)NC1=O` [compound 6513, 3(R)OH-nC9CO-D-Dab-cyc[L-Dab-L-Dab-D-Phe-L-Leu-L-Dab-L-Dab-L-Asp]] ({Decanoyl(3R-OH)}-[dDab][Dab][Dab][dF]L[Dab][Dab]D; lactam 2-C): the “MIC A. baumannii ATCC 19606” value against A. baumannii ATCC 19606 is over 64 µg/mL. For the same molecule, the “MIC A. baumannii GN_093 PmxR” value with A. baumannii GN_093 PmxR was over 32 µg/mL. Besides, in the series with E. coli ATCC 25922, the “MIC E. coli ATCC 25922” value is over 64 µg/mL. The “MIC K. pneumoniae ATCC 13883” value with K. pneumoniae ATCC 13883 is over 64 µg/mL. In addition, the “MIC K. pneumoniae ATCC 700603, MDR” value in series [1] turned out to be 64 µg/mL (≈ 61.2 µM). Besides, in [2], the “MIC K. pneumoniae ATCC BAA-2146, NDM-1 pos” value was over 64 µg/mL. In addition, the “MIC K. pneumoniae GN_102 PmxR” value in [3] is over 32 µg/mL. Further, in [4], the “MIC K. pneumoniae GN_106, PmxR” value was over 32 µg/mL. Besides, the “MIC P. aeruginosa ATCC 27853” value in the series on P. aeruginosa ATCC 27853 is 4 µg/mL (≈ 3.82 µM). Further, the “MIC P. aeruginosa GN_043, PmxR” value in series [5] turned out to be 8 µg/mL (≈ 7.65 µM). In addition, in [6], the “MIC P. aeruginosa GN_105, PmxR” value was over 32 µg/mL. In series [7], the “MIC S. aureus ATCC 25923, MSSA” value is over 32 µg/mL. In “in vitro”, the CC50 at 24 h was over 300 µM.
